Values of other authors, collected in article PMC10458307, “New Scaffolds of Proteasome Inhibitors: Boosting Anticancer Potential by Exploiting the Synergy of In Silico and In Vitro Methodologies” (Pharmaceuticals, 2023).
Peptide text beside a SMILES is read from it. * marks the point of attachment. Cbz = O=C(OCc1ccccc1)*

Tested on: proteasome CT-L active site
Settings: literature values of known proteasome inhibitors; reference per compound; cited from earlier work
In the case of `O=c1cc(-c2ccc(O)cc2)oc2cc(O)cc(O)c12` [Apigenin], the IC50 is given as 1800 nM. For `Oc1cc(O)c2cc(O)c(-c3ccc(O)c(O)c3)[o+]c2c1` [Cyanidin], the IC50 is listed as 18400 nM. In the case of `Oc1cc(O)c2cc(O)c(-c3cc(O)c(O)c(O)c3)[o+]c2c1` [Delphinidin], the IC50 is listed as 32400 nM. In the case of `CC[C@H](C)[C@H](NC(=O)[C@H]([C@@H](C)CC)N(C)C(C)=O)C(=O)N[C@H](C(=O)N[C@@H](CC(C)C)C(=O)[C@@]1(C)CO1)[C@@H](C)O` [Epoxomicin], the IC50 is given as 47 nM. In the case of `CCCCCCCCC[C@@H](O)CC(=O)N[C@@H](CC(N)=O)C(=O)N[C@@H](CCC(N)=O)C(=O)N[C@H](C=O)CC(C)C` [Fellutamide B], the IC50 is given as 9.4 nM. For `O=c1c(O)c(-c2ccc(O)cc2)oc2cc(O)cc(O)c12` [Kaempferol], the IC50 is given as 10500 nM. In the case of `CC(C)C[C@@H](C=O)NC(=O)[C@H](CC(C)C)NC(=O)[C@H](CC(C)C)NC(=O)OCc1ccccc1` [MG-132] (Cbz-Leu-Leu-Leu-aldehyde), the IC50 is given as 40 nM. In the case of `COc1cc(-c2[o+]c3cc(O)cc(O)c3cc2O)cc(OC)c1O` [Malvidin], the IC50 is given as 32000 nM. In the case of `O=c1c(O)c(-c2ccc(O)c(O)c2)oc2cc(O)cc(O)c12` [Quercetin], the IC50 is given as 3500 nM. In the case of `C/C=C\NC(=O)[C@H]1NC(=O)[C@H](CC(N)=O)NC(=O)[C@@H](NC(=O)C(=O)[C@@H](C)CC)Cc2ccc(O)c(c2)-c2cccc3c2NC(=O)[C@@]3(O)[C@@H]1O` [TMC-95A], the IC50 is given as 5.4 nM.

Tested on: proteasome C-L active site
Settings: literature values; ref 34 (bortezomib), 35 (ixazomib); cited from earlier work
In the case of `CC(C)C[C@H](NC(=O)CNC(=O)c1cc(Cl)ccc1Cl)B(O)O` [Ixazomib, ixazomib], the IC50 is listed as 31 nM.

Tested on: proteasome T-L activity
Design: method as in PMID 16286248
Settings: literature value; cited from earlier work
For `C[C@@]12OC(=O)[C@]1([C@@H](O)[C@@H]1C=CCCC1)NC(=O)[C@@H]2CCCl` [Marizomib, marizomib], the IC50 is given as 28 nM.
